Organism: Rattus norvegicus
Assay: DrugMatrix - Regimen: Daily Repeat
Type: toxicity, organism-based, Sprague-Dawley
Parameters: regimen Daily Repeat, gender Male, age 6-8 weeks
Conditions: in vivo, po, route oral GAVAGE, vehicle .5 % CMC; for ABSOLUTE BASOPHIL / ABSOLUTE EOSINOPHIL / ABSOLUTE LYMPHOCYTE / ABSOLUTE MONOCYTE / ABSOLUTE SEGMENTED NEUTROPHIL / BASOPHIL / EOSINOPHIL / ERYTHROCYTE COUNT / HEMATOCRIT / HEMOGLOBIN / LEUKOCYTE COUNT / LYMPHOCYTE / MEAN CORPUSCULAR HEMOGLOBIN / MEAN CORPUSCULAR HEMOGLOBIN CONCENTRATION / MEAN CORPUSCULAR VOLUME / MONOCYTE / NEUTROPHIL / NUCLEATED RED BLOOD CELLS / PLATELET COUNT: tissue Blood; for ALANINE AMINOTRANSFERASE / ALBUMIN / ALKALINE PHOSPHATASE / ASPARTATE AMINOTRANSFERASE / BLOOD UREA NITROGEN / CARBON DIOXIDE / CHLORIDE / CHOLESTEROL / CREATINE PHOSPHOKINASE / CREATININE / GLUCOSE / LACTATE DEHYDROGENASE / LIPASE / PHOSPHORUS / POTASSIUM / SODIUM / TOTAL BILIRUBIN / TOTAL PROTEIN / URIC ACID: tissue Plasma
[1] = 0 mg/kg, 72 h, dose level Control, time 3 day
[2] = 0 mg/kg, 120 h, dose level Control, time 5 day
[3] = 50 mg/kg, 72 h, dose level Low, time 3 day

**Q.** What does the source list for `CC(/C=C1\SC(=S)N(CC(=O)O)C1=O)=C\c1ccccc1`?
**A.** ABSOLUTE BASOPHIL [1]: 0 CELLS/uL; ABSOLUTE EOSINOPHIL [1]: 0 CELLS/uL; ABSOLUTE LYMPHOCYTE [1]: 12191.17 CELLS/uL; ABSOLUTE MONOCYTE [1]: 183.17 CELLS/uL; ABSOLUTE SEGMENTED NEUTROPHIL [1]: 1192.33 CELLS/uL; BASOPHIL [1]: 0%; EOSINOPHIL [1]: 0%; ERYTHROCYTE COUNT [1]: 5.51 x10E6/uL; HEMATOCRIT [1]: 35.45%; HEMOGLOBIN [1]: 13.82 G/DL; LEUKOCYTE COUNT [1]: 13.57 x10E3/uL; LYMPHOCYTE [1]: 89.83%; MEAN CORPUSCULAR HEMOGLOBIN [1]: 25.1 pg; MEAN CORPUSCULAR HEMOGLOBIN CONCENTRATION [1]: 38.98 G/DL; MEAN CORPUSCULAR VOLUME [1]: 64.42 fL; MONOCYTE [1]: 1.33%; NEUTROPHIL [1]: 8.83%; NUCLEATED RED BLOOD CELLS [1]: 0 /100WBC; PLATELET COUNT [1]: 1118.17 x10E3/uL; ALANINE AMINOTRANSFERASE [1]: 55 u/L; ALBUMIN [1]: 4.15 G/DL; ALKALINE PHOSPHATASE [1]: 449.5 u/L; ASPARTATE AMINOTRANSFERASE [1]: 112.83 u/L; BLOOD UREA NITROGEN [1]: 17.33 mg/dL; CARBON DIOXIDE [1]: 29.5 mmol/L; CHLORIDE [1]: 101 MEQ/L; CHOLESTEROL [1]: 70 mg/dL; CREATINE PHOSPHOKINASE [1]: 1325.83 u/L; CREATININE [1]: 0.18 mg/dL; GLUCOSE [1]: 171.5 mg/dL; LACTATE DEHYDROGENASE [1]: 386 u/L; LIPASE [1]: 10 u/L; PHOSPHORUS [1]: 11.57 mg/dL; POTASSIUM [1]: 6.21 MEQ/L; SODIUM [1]: 141.65 MEQ/L; TOTAL BILIRUBIN [1]: 0.15 mg/dL; TOTAL PROTEIN [1]: 5.75 G/DL; URIC ACID [1]: 1.28 mg/dL; ABSOLUTE BASOPHIL [2]: 0 CELLS/uL; ABSOLUTE EOSINOPHIL [2]: 138.17 CELLS/uL; ABSOLUTE LYMPHOCYTE [2]: 13283.17 CELLS/uL; ABSOLUTE MONOCYTE [2]: 303.83 CELLS/uL; ABSOLUTE SEGMENTED NEUTROPHIL [2]: 1308.17 CELLS/uL; BASOPHIL [2]: 0%; EOSINOPHIL [2]: 1%; ERYTHROCYTE COUNT [2]: 5.32 x10E6/uL; HEMATOCRIT [2]: 33.8%; HEMOGLOBIN [2]: 13.63 G/DL; LEUKOCYTE COUNT [2]: 15.03 x10E3/uL; LYMPHOCYTE [2]: 88.33%; MEAN CORPUSCULAR HEMOGLOBIN [2]: 25.68 pg; MEAN CORPUSCULAR HEMOGLOBIN CONCENTRATION [2]: 40.35 G/DL; MEAN CORPUSCULAR VOLUME [2]: 63.67 fL; MONOCYTE [2]: 1.83%; NEUTROPHIL [2]: 8.83%; NUCLEATED RED BLOOD CELLS [2]: 0 /100WBC; PLATELET COUNT [2]: 1097.5 x10E3/uL; ALANINE AMINOTRANSFERASE [2]: 54.5 u/L; ALBUMIN [2]: 4.27 G/DL; ALKALINE PHOSPHATASE [2]: 337 u/L; ASPARTATE AMINOTRANSFERASE [2]: 94.67 u/L; BLOOD UREA NITROGEN [2]: 17 mg/dL; CARBON DIOXIDE [2]: 28.33 mmol/L; CHLORIDE [2]: 101.5 MEQ/L; CHOLESTEROL [2]: 71.33 mg/dL; CREATINE PHOSPHOKINASE [2]: 628.17 u/L; CREATININE [2]: 0.19 mg/dL; GLUCOSE [2]: 177.83 mg/dL; LACTATE DEHYDROGENASE [2]: 500.5 u/L; LIPASE [2]: 9.5 u/L; PHOSPHORUS [2]: 12.3 mg/dL; POTASSIUM [2]: 5.63 MEQ/L; SODIUM [2]: 143.03 MEQ/L; TOTAL BILIRUBIN [2]: 0.2 mg/dL; TOTAL PROTEIN [2]: 6.02 G/DL; URIC ACID [2]: 1.5 mg/dL; ABSOLUTE BASOPHIL [3]: 0 CELLS/uL; ABSOLUTE EOSINOPHIL [3]: 0 CELLS/uL; ABSOLUTE LYMPHOCYTE [3]: 10745.33 CELLS/uL; ABSOLUTE MONOCYTE [3]: 122.33 CELLS/uL; ABSOLUTE SEGMENTED NEUTROPHIL [3]: 899 CELLS/uL; BASOPHIL [3]: 0%; EOSINOPHIL [3]: 0%; ERYTHROCYTE COUNT [3]: 5.12 x10E6/uL; HEMATOCRIT [3]: 32.47%; HEMOGLOBIN [3]: 13.07 G/DL; LEUKOCYTE COUNT [3]: 11.77 x10E3/uL; LYMPHOCYTE [3]: 91.33%; MEAN CORPUSCULAR HEMOGLOBIN [3]: 25.57 pg; MEAN CORPUSCULAR HEMOGLOBIN CONCENTRATION [3]: 40.23 G/DL; MEAN CORPUSCULAR VOLUME [3]: 63.67 fL; MONOCYTE [3]: 1%; NEUTROPHIL [3]: 7.67%; NUCLEATED RED BLOOD CELLS [3]: 0.33 /100WBC; PLATELET COUNT [3]: 1123 x10E3/uL; ALANINE AMINOTRANSFERASE [3]: 53.67 u/L; ALBUMIN [3]: 4.27 G/DL; ALKALINE PHOSPHATASE [3]: 336 u/L; ASPARTATE AMINOTRANSFERASE [3]: 85.33 u/L; BLOOD UREA NITROGEN [3]: 16 mg/dL; CARBON DIOXIDE [3]: 27.33 mmol/L; CHLORIDE [3]: 101.67 MEQ/L; CHOLESTEROL [3]: 75.67 mg/dL; CREATINE PHOSPHOKINASE [3]: 291.33 u/L; CREATININE [3]: 0.17 mg/dL; GLUCOSE [3]: 165.67 mg/dL; LACTATE DEHYDROGENASE [3]: 165.67 u/L; LIPASE [3]: 9.33 u/L; PHOSPHORUS [3]: 12.33 mg/dL; POTASSIUM [3]: 6.32 MEQ/L; SODIUM [3]: 143.7 MEQ/L; TOTAL BILIRUBIN [3]: 0.1 mg/dL; TOTAL PROTEIN [3]: 5.77 G/DL; URIC ACID [3]: 2.2 mg/dL
